Results taken from patent US7402697B2, “Antibacterial agents” (Idexx Laboratories Inc., priority 2004, dated 2008).
Converted amounts (≈) assume the structure as drawn. “Also recorded” adds a separate entry of the source.

Key:
[1] = Serum concentration as a function of time after subcutaneous administration to dogs (HPLC); assay type: in vivo; details: for clearance of each isomer, serum concentration as percent of CmaxR or CmaxS as a function of time: 40 mg/kg of A2 as equimolar mixture of (R) and (S) acylamido configuration; for clearance rate: compared with NUFLOR®
Procedure: The pharmaceutical composition was then administered to dogs at a dose of 40 mg/kg. Blood samples were taken from the dog at various time points and serum separated using standard methods well known to those skilled in the art. The serum was then analyzed using HPLC according to the following procedure: A C18 Sep-Pak Plus® cartridge (Sep-Pak) (commercially available from Waters of Milford, Mass.) was rinsed with 5 mL of methanol followed by 5 mL of water and loaded with 1 mL of serum. After loading, the Sep-Pak was washed with 2 mL of water, 2 mL of 15% aqueous acetonitrile, and 3 mL of hexane. The Sep-Pak was then eluted with 4 mL of acetonitrile and the eluant collected. The acetonitrile was evaporated using a stream of nitrogen to provide a residue and the resulting residue was reconstituted with 1 mL of 25% aqueous acetonitrile to provide an assay solution. 50 μL of the assay solution was then analyzed by HPCL using high pressure liquid chromatography equipped with a Beckman Coulter Ultraphere C-18 5 μM×4.6 mm×250 mm analytical column eluted at a flow of 1.2 mL/min. using a gradient of water and acetonitrile according to the following profile: [table] The HPLC system was interfaced to a UV detector operated at 223 nm. […] The pharmaceutical composition was then administered to dogs subcutaneously at a a dose of 40 mg/kg. Blood samples were taken from the dogs at various time points and the blood samples treated as described above. The serum was then analyzed using the HPLC procedure described above. […] The pharmaceutical composition was then administered to dogs subcutaneously at a a dose of 40 mg/kg. Blood samples were taken from the dogs at various time points and the blood samples treated as described above. The serum was then analyzed using the HPLC procedure described above. […] The maximum serum level was determined for each isomer (CmaxR and CmaxS, respectively).

S. aureaus = assay: Minimum inhibitory concentration, disk diffusion susceptibility testing; assay type: cell-based
Procedure: (§1) The activity of a Fenicol Compound against a bacteria is determined using standard dilution tests. For example, the minimum inhibitory concentrations can be determined using the disk diffusion susceptibility testing method described in Clinical Microbiology Procedures Handbook, volume 1, edited by Henry D. Isenberg, American Society for Microbiology, 1992, section 5.1 or the well known method of Bauer et al. “Antibiotic Susceptibility Testing by a Standardized Single Disc Method,” Amer. J. Clin. Pathol., 45, p. 493-496.

B. subtitis = assay: as above; assay type: cell-based
Procedure: as §1

S. pyogenes = assay: as above; assay type: cell-based
Procedure: as §1

E. faecalis = assay: as above; assay type: cell-based
Procedure: as §1

E. coli = assay: as above; assay type: cell-based; details: for Minimum Inhibitory Concentration: E. coli
Procedure: as §1

K. pneumoniae = assay: as above; assay type: cell-based
Procedure: as §1

B. bronchoseptica = assay: as above; assay type: cell-based
Procedure: as §1

| SMILES | maximum serum concentration ([1]; 40 mg/kg) | Minimum Inhibitory Concentration (S. aureaus) [µg/mL] | Minimum Inhibitory Concentration (B. subtitis) [µg/mL] | Minimum Inhibitory Concentration (S. pyogenes) [µg/mL] | Minimum Inhibitory Concentration (E. coli) [µg/mL] | Minimum Inhibitory Concentration (K. pneumoniae) [µg/mL] | Minimum Inhibitory Concentration (B. bronchoseptica) [µg/mL] | further results |
| --- | --- | --- | --- | --- | --- | --- | --- | --- |
| C[C@@H](C(=O)N[C@H](CF)[C@H](O)c1ccc(S(C)(=O)=O)cc1)C(F)(F)F | – | – | – | – | – | – | – | clearance of each isomer, serum concentration as percent of CmaxR or CmaxS as a function of time [1]: decreases rapidly |
| CC(Cl)C(=O)NC(CF)C(O)c1ccc(S(C)(=O)=O)cc1 (mixture of isomers) [E2 + I2 (Racemic Mixture)] | – | 2 | 0.5 | – | 3 | 5 | 3 | – |
| CC(F)C(=O)NC(CF)C(O)c1ccc(S(C)(=O)=O)cc1 (mixture of isomers) [E5 + I5 (Racemic Mixture)] | – | 5 | 1 | 5 | 5 | 5 | >10 | Minimum Inhibitory Concentration (E. faecalis): 3 µg/mL |
| C[C@H](C(=O)N[C@H](CF)[C@H](O)c1ccc(S(C)(=O)=O)cc1)C(F)(F)F [A2 wherein the acylamido group has the (R) stereochemical co] | – | – | – | – | – | – | – | clearance of each isomer, serum concentration as percent of CmaxR or CmaxS as a function of time ([1]; 40 mg/kg): cleared more slowly |
| C[C@H](C(=O)N[C@H](CF)[C@H](O)c1ccc(S(C)(=O)=O)cc1)C(F)(F)F [A2 wherein the acylamido group is present in the (R) stereoc] | – | – | – | – | – | – | – | clearance of each isomer, serum concentration as percent of CmaxR or CmaxS as a function of time ([1]; 40 mg/kg): decreases much more slowly |
| CS(=O)(=O)c1ccc([C@@H](O)[C@@H](CF)NC(=O)CCl)cc1 [D-threo-2-chloro-N-[1-(fluoromethyl)-2-hydroxy-2-[4-methylsulfonyl)phenyl]ethyl]-acetamide] | – | 2 | 0.5 | – | 3 | 5 | 3 | – |
| CS(=O)(=O)c1ccc([C@@H](O)[C@@H](CF)NC(=O)C(Cl)Cl)cc1 [Fluorfenicol, reference compound] | less than 0.8 μg/mL | – | – | – | – | – | – | MIC (K. pneumoniae; Klebsiella pneumoniae): 3 µg/mL (≈ 8.37 µM); MIC (S. aureaus): 1 µg/mL (≈ 2.79 µM); MIC (B. subtitis): 1 µg/mL (≈ 2.79 µM); MIC (S. pyogenes; Streptococcus pyogenes): 1 µg/mL (≈ 2.79 µM); MIC (E. faecalis; Enterococcus faecalis): 3 µg/mL (≈ 8.37 µM); MIC (B. bronchoseptica): 1 µg/mL (≈ 2.79 µM); MIC (E. coli; Escherichia coli, read-out: Minimum Inhibitory Concentration): 1 µg/mL (≈ 2.79 µM) |

Continued, in another order:

| maximum serum concentration ([1]; 40 mg/kg) | SMILES | Minimum Inhibitory Concentration (S. aureaus) [µg/mL] | Minimum Inhibitory Concentration (B. subtitis) [µg/mL] | Minimum Inhibitory Concentration (S. pyogenes) [µg/mL] | Minimum Inhibitory Concentration (E. coli) [µg/mL] | Minimum Inhibitory Concentration (K. pneumoniae) [µg/mL] | Minimum Inhibitory Concentration (B. bronchoseptica) [µg/mL] | further results |
| --- | --- | --- | --- | --- | --- | --- | --- | --- |
| ~5 µg/mL | CC(C(=O)NC(CF)C(O)c1ccc(S(C)(=O)=O)cc1)C(F)(F)F (mixture of isomers) [A2] | 7 | 5 | 5 | 7 | – | – | serum concentration compared with NUFLOR® ([1]; 40 mg/kg): much higher serum concentration; clearance rate ([1]; 40 mg/kg): much slower than the clearance rate of NUFLOR®; also recorded: cleared more slowly than is NUFLOR®; Minimum Inhibitory Concentration (E. faecalis): 5 µg/mL |
| ~7 µg/mL | CC(C)C(=O)N[C@H](CF)[C@H](O)c1ccc(S(C)(=O)=O)cc1 [A1] | 3 | 2 | 5 | 5 | – | – | serum concentration compared with NUFLOR® ([1]; 40 mg/kg): higher serum concentration than NUFLOR®; clearance rate ([1]; 40 mg/kg): cleared much more slowly; also recorded: cleared more slowly than NUFLOR® |
